Test results published in patent US10245847B2, “Reaction solution and ink jet recording method” (Seiko Epson Corporation, priority 2016, dated 2019).

Columns and labels:
[1] = degree of solubility with respect to an aqueous solution having a concentration of 2-pyrrolidone of 20% by mass; conditions: 20% by mass 2-pyrrolidone aqueous solution, 25° C.
[2] = log P value (water octanol distribution coefficient) of organic solvents
Text: Here, regarding several organic solvents, a log P value (water octanol distribution coefficient) will be described below. […] Note that, numbers in parentheses indicate log P values.
Here, “log P value” means an index indicating the hydrophobicity of the compound. The log P value indicates the ratio of the solutes distributed in these two layers in the octanol/water system. In other words, the larger the log P value of the solute is, the higher the hydrophobicity is, and it dissolves well in the octanol phase. Further, the fact that the log P values of the two kinds of substances are approximate means that the hydrophobicity of each is similar. The log P value can be obtained by, for example, a flask shaking method in which a solute and two kinds of solvents are actually put into a flask and are stirred well, and an HPLC method using high performance liquid chromatography (HPLC).

[3] = LogP, Table 2, organic solvents of the reaction solution
[4] = LogP, Table 3, organic solvents of the reaction solution

Row | Compound | Solubility to 2-pyrrolidone aqueous solution ([1]; Table 2) | Solubility to 2-pyrrolidone aqueous solution ([1]; Table 3) | logP [2] | also measured
1 | O=C1CCCO1 [γ-butyrolactone] | ≥1% | ≥1% |  | logP [2, 3]: -0.64; logP [2, 4]: -0.64; logP ([2]; log P value (water octanol distribution coefficient), octanol/water): -0.64
2 | CCC(=O)OCC(C)OC(=O)CC (stereo not drawn) [propylene glycol dipropionate] |  |  | 1.76 | 
3 | CCCOCC(C)O (stereo not drawn) [propylene glycol monopropyl ether] |  |  | -0.81 | 
4 | CCCCOCCOCCO [diethylene glycol monobutyl ether] |  |  | 1.19 | 
5 | COCCC(=O)N(C)C [3-methoxy-N,N-dimethyl propanamide] |  |  |  | LogP [2]: 0.73
6 | COC(C)CCO (stereo not drawn) [3-methoxy-1-butanol] | ≥1% | ≥1% | 0.07 | 
7 | CC(=O)OCC(C)OC(C)=O (stereo not drawn) [propylene glycol diacetate] |  |  | 0.74 | 
8 | COCCOCCOCCOC [triethylene glycol dimethyl ether] |  |  | -0.67 | 
9 | polyethylene glycol monomethyl ether | ≥1% | ≥1% |  | LogP [2]: 0.80
10 | CCCCCCOCCO [ethylene glycol mono-n-hexyl ether] | ≥1% | ≥1% | 1.57 | 
11 | CCC(O)CO (stereo not drawn) [1,2-butanediol] |  |  |  | Solubility to 2-pyrrolidone aqueous solution ([1]; Table 1): ≥1%; logP ([2]; octanol/water): 0.06
12 | CCCCOCCOCCOCCCC [diethylene glycol di-n-butyl ether] |  |  | 1.92 | LogP [2]: 1.92
13 | CCCCOCCOC(C)=O [ethylene glycol monobutyl ether acetate] | ≥1% | ≥1% |  | logP ([2]; octanol/water): 1.79
14 | CCCCOCCOCCOCCO [triethylene glycol monobutyl ether] |  |  | 0.51 | 
15 | CCCCOCC(C)O (stereo not drawn) [propylene glycol monobutyl ether] | ≥1% | ≥1% | 1.19 | 
16 | CC(O)CO (stereo not drawn) [propylene glycol] |  |  | -1.4 | 
17 | OCC(O)CO [Glycerin] |  |  |  | LogP [2]: −1.76
18 | CCC(=O)N(C)C [N,N-dimethyl propionamide] |  | ≥1% | 0.46 | 
19 | COC(C)(C)CCO [3-methoxy-3-methylbutanol] |  |  | -0.63 | 
20 | CCOCCOCCOC [diethylene glycol ethyl methyl ether] | ≥1% | ≥1% | 0.69 | 
21 | CC(=O)OCCOC(C)=O [Ethylene glycol diacetate] |  |  | 0.4 | LogP [2]: 0.40
22 | COCCOCCO [diethylene glycol monomethyl ether] | ≥1% | ≥1% |  | logP [2, 3]: -1.18; logP [2, 4]: -1.18
